# Experiments:
# [1] = target: T1, LRRK2 A2016T/G2019S (Homo sapiens, UniProt Q5S007, A2016T/G2019S); assay: Immunoprecipitation/Western analysis of LRRK2 phosphorylation in T-REx HEK293 cells expressing inhibitor desensitizing mutant; format: cell-based; settings: 20 µM, Figure 6 IRM
# T1 construct: expressed in transfected cells
# Description: Immunoblot analysis: BacMam LRRK2-GFP transduced U-2 OS or SH-SY5Y cells (10^7 cells) were left untreated or treated with 3 µM LRRK2-IN-I for 90 min. For lysate preparation, the cells were washed once with ice-cold PBS and lysed by addition of ice-cold lysis buffer (20 mM Tris-HCl, pH 7.4, 1% NP-40, 5 mM EDTA, 5 mM NaF, 150 mM NaCl, and 1∶100 of protease and phosphatase inhibitor cocktails). The lysate was cleared of debris by centrifugation. Equal amount of total protein was loaded onto each lane for SDS-PAGE (3–8% Tris Acetate). The proteins were transferred onto nitrocellulose membrane using the iBLOT® dry blotting system (Life Technologies) according to manufacturer’s protocol. The membranes were blocked and incubated with a primary antibody against LRRK2 (Cell Signaling Technologies), followed by incubation with alkaline phosphatase-conjugated secondary antibody (WesternBreeze® chromogenic Kit, Life Technologies). The blot was developed by using the chromogenic BCIP/NBT substrate (WesternBreeze® chromogenic Kit, Life Technologies). […] Two days post induction, cells were treated for 90 minutes in the presence of 20 µM of compound or DMSO vehicle control. Cells were rapidly lysed in ice cold lysis buffer 50 mM Tris/HCl, pH 7.5, 1 mM EGTA, 1 mM EDTA, […] 1 mM sodium orthovanadate, 10 mM sodium beta-glycerolphosphate, 50 mM NaF, 5 mM sodium pyrophosphate, 0.27 M sucrose, 1 mM benzamidine and 2 mM phenylmethanesulphonylfluoride (PMSF) and one tablet each complete protease inhibitor and PhosSTOP phosphatase inhibitor (Roche) and was supplemented with 1% (v/v) Triton X-100. GFP-LRRK2 was immunoprecipitated with GFP nanotrap beads (ChromoTek). Immunecomplexes were washed twice with lysis buffer supplemented with 300 mM NaCl and once with Buffer A (50 mM Tris/HCl, pH 7.5, 50 mM NaCl, 0.1 mM EGTA and 0.1% (v/v) 2-mercaptoethanol, and 0.27 M sucrose).
# [2] = target: T2, LRRK2 wild-type (Homo sapiens, UniProt Q5S007); assay: TR-FRET cellular assay for LRRK2 Ser935 phosphorylation, U-2 OS cells, BacMam LRRK2-GFP wild-type; format: cell-based; parameters: This high-throughput assay utilizes cells expressing full-length human LRRK2 with a C-terminal GFP tag (LRRK2-GFP); host or cells: U-2 OS cells transduced with BacMam
# Description: (§1) U-2 OS cells are maintained in growth medium (McCoy’s 5A supplemented with 10% dialyzed FBS (dFBS), 10 mM HEPES, 0.1 mM NEAA, 1 mM Sodium Pyruvate, and 100 U/mL Penicillin/100 µg/mL Streptomycin). HEK293T cells are maintained in DMEM with 10% dFBS, 10 mM HEPES, 0.1 mM NEAA and 100 U/mL Penicillin/100 µg/mL Streptomycin. SH-SY5Y cells are maintained in DMEM/F-12 medium supplemented with 10% dFBS and 100 U/mL Penicillin/100 µg/mL Streptomycin. […] GIBCO® human neural stem cells (hNSCs) were propagated as an adherent culture in StemPro® NSC SFM according to the manufacturer’s recommended protocol (Life Technologies). For BacMam transduction of U-2 OS and HEK293T, cells were harvested, mixed with various amounts of BacMam LRRK2-GFP reagent (v/v) and plated onto 6-well plates. […] Cells were assayed in 384-well format (∼20,000 cells/well) 48 hours post-transduction as above.
# (§2) Transduced cells in the 384-well assay plate were incubated with indicated inhibitors (5X, 5 µL/well) for 60 to 90 minutes. During this time, 6 X lysis buffer (Life Technologies) was supplemented with 30 nM Tb-labeled anti-LRRK2 pSer935 antibody and both protease and phosphatase inhibitor cocktails (Sigma). The complete 6 X lysis buffer was added to each well (5 µL/well) and the plates were incubated at room temperature in the dark for 2 hours. […] A sigmoidal dose-response equation with varying slope was used to fit the data and generate IC50 values. Z′-factor values were calculated as: Z′-factor = 1 - [(3 × stdevno virus +3 × stdevmaxvirus)/(avgmaxvirus – avgno-virus)]. The IC50 values reported in Table 1 are the averaged numbers from three independent experiments.
# [3] = target: T2, LRRK2 wild-type; assay: TR-FRET cellular assay for LRRK2 Ser935 phosphorylation, SH-SY5Y cells, BacMam LRRK2-GFP wild-type; format: cell-based; parameters: This high-throughput assay utilizes cells expressing full-length human LRRK2 with a C-terminal GFP tag (LRRK2-GFP); host or cells: SH-SY5Y cells transduced with BacMam
# Description: as §1, §2
# [4] = test system: LRRK2-GFP; assay: Fluorescence microscopy of LRRK2-GFP localization in U-2 OS cells; format: cell-based, human; settings: 3 µM 90 min, Figure 1A
# Description: U-2 OS cells were transduced with BacMam LRRK2-GFP as described above. The cells were then plated on chambered coverslips (LabTek II/Nunc, Rochester, NY) at 50% confluency and incubated for 48 hours. The growth medium was replaced with phenol-red free DMEM® (Life Technologies, Carlsbad, CA) before live imaging. Cells were imaged under the same conditions for each mutant using an inverted microscope (Nikon Eclipse TE2000-S) equipped with a PlanApo 60X objective and a charge-coupled device camera (Diagnostic Instruments SPOT RT 2.3.0) using SPOT Advanced software.
# [5] = WT, +/- SD, three independent experiments, * = partial inhibition, read-out: IC50, TR-FRET cell-based assay for Ser935 phosphorylation of LRRK2
# T2 sequence (Q5S007 whole entry): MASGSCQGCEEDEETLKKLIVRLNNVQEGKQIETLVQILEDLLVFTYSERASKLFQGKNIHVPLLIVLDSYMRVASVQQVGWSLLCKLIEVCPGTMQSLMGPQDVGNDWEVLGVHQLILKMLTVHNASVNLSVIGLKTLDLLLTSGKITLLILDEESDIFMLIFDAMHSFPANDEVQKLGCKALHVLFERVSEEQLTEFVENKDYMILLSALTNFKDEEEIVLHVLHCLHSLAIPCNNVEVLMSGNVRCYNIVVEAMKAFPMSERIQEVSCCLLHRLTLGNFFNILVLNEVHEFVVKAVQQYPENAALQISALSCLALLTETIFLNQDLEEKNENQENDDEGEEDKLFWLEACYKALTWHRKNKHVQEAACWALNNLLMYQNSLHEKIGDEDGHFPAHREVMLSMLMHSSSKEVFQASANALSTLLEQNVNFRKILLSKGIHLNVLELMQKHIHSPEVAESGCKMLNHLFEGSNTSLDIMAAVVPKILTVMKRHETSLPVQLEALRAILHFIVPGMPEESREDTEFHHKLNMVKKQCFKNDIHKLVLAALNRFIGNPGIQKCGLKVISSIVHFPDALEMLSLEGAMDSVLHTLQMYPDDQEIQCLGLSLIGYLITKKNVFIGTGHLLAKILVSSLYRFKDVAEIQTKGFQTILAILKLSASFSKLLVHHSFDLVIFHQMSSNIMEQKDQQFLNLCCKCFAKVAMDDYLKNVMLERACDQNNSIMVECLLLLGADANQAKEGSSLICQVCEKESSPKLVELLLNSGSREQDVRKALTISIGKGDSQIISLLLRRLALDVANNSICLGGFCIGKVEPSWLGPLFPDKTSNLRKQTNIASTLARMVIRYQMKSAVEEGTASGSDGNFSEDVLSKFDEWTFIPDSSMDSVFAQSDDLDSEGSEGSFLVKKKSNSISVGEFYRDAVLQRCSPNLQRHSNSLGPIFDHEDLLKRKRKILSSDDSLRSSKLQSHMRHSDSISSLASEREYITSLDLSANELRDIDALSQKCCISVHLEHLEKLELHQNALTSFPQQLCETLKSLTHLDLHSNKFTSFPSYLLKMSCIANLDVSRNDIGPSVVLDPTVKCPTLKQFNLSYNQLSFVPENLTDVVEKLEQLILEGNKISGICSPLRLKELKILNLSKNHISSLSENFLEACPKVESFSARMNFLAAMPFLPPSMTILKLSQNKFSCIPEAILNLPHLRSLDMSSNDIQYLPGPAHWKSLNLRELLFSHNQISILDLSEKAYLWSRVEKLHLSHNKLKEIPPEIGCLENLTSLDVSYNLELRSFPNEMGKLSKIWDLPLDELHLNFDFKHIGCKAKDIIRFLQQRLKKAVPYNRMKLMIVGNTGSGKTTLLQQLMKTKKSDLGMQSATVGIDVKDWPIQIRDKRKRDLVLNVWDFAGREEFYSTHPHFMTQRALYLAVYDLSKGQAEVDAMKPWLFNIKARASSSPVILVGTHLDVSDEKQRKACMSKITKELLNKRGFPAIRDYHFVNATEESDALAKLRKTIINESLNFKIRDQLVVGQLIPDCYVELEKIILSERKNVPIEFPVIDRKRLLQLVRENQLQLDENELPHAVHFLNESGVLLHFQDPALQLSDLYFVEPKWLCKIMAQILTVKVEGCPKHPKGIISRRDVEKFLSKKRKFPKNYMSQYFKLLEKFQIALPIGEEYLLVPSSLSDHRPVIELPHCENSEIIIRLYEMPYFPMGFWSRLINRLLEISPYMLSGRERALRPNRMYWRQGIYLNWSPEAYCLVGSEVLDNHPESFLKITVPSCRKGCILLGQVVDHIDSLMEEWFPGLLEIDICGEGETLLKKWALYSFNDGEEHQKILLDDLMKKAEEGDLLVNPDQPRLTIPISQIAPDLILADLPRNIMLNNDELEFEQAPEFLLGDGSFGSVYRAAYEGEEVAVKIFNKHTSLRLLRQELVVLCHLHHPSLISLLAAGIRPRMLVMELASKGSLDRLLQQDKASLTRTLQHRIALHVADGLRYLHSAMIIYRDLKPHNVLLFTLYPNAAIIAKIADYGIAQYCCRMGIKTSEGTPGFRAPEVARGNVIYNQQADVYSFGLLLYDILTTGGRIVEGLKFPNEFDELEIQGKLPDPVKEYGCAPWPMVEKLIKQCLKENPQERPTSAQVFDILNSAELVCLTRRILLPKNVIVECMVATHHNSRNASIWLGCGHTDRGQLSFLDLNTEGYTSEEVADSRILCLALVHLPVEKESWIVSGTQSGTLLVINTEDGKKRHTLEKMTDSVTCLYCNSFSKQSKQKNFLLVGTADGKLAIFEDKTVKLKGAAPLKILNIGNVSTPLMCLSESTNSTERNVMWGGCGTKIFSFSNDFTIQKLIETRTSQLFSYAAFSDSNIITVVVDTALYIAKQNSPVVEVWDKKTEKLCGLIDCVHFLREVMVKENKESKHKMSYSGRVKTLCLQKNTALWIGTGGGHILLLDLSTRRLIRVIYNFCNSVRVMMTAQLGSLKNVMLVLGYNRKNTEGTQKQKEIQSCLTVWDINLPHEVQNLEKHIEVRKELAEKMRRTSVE
# T1 sequence (Q5S007 whole entry A2016T/G2019S): as the sequence (Q5S007 whole entry) above, with A2016T, G2019S counted along it
compound,measurement,setting,value
COc1cc(C(=O)N2CCC(N3CCN(C)CC3)CC2)ccc1Nc1ncc2c(n1)N(C)c1ccccc1C(=O)N2C [LRRK2-IN-1],effect of desensitizing mutation A2016T/G2019S on compound-induced dephosphorylation (IP-Western),[1],rescued phosphorylation
same,IC50,"[2]; 20% BacMam wild-type, 90 min, Figure 2B, read-out: IC50, inhibition of TR-FRET signal (Ser935 phosphorylation)",80 nM
same,IC50,[2]; [5],90 nM
same,IC50,"[3]; 25% BacMam wild-type, 90 min, Figure 3C, read-out: IC50, inhibition of TR-FRET signal (Ser935 phosphorylation)",170 nM
same,IC50,[3]; [5],200 nM
same,LRRK2-GFP cellular localization,[4],"relocalization of the wild-type, G2019S and R1441C to more fibrillar-like structures"
